The values that follow come from ChEMBL document CHEMBL1201862, “PubChem BioAssay data set” (2004).

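Grown in 96-well plates, cells were treated for 48 hours with each compound at five concentrations. Insufficient inhibition: endpoint recorded as highest concentration tested. GI50: concentration for 50% inhibition of growth.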 Activity calls are given as the source filed them. No stated cut-off is given here; in the data, active = GI50 up to about 1.1 µM and inactive = higher.

What all share (assay): growth of human tumour cells (NCI), 48 h
Assay [1] has as its system EKVX.
The test system of assay [2] is UACC-257.
The subject of assay [3] is Malme-3M.
Assay [4] has as its system UO-31.
Assay [5] relates to UACC-62.
Assay [6] concerns HCT-15.
For assay [7], the system named is HT-29.
The subject of assay [8] is KM12.
Assay [9] deals with SF-295.
The subject of assay [10] is MOLT-4.
The test system of assay [11] is OVCAR-3.
Assay [12] has as its system NCI-H460.
In assay [13] the test system is HCT-116.
Assay [14] relates to SK-MEL-2.
Assay [15] relates to CAKI-1.
Assay [16] concerns MCF7.
Assay [17] has as its system OVCAR-5.
In assay [18] the test system is HOP-92.

On to `CCOC(=O)C[C@@]12CCCNC1(C)CCc1ccccc12` (stereo not given in full), for which the GI50 in assay [1] was > 100 µM (inactive); in [2], > 100 µM (inactive); in assay [3], > 100 µM (inactive); in assay [4], > 100 µM (inactive); in assay [5] it was > 100 µM (inactive); in assay [6], greater than 100 µM. The GI50 in [7] is > 100 µM (inactive); in [8], > 100 µM (inactive); in assay [9] it was 52.5 µM (inactive); in assay [10], > 100 µM (inactive); in [11], > 100 µM (inactive); in [12], > 100 µM (inactive). Also, the GI50 in assay [13] and in [14] was > 100 µM (inactive) each time.
Consider `Nc1ccc(SC23CC4CC(CC(C4)C2)C3)cc1`, for which the GI50 in assay [1], in assay [2], in [15], in assay [3], in assay [4] and in [5] was > 100 µM (inactive) each time. Moreover, the GI50 was greater than 100 µM in assay [6]; > 100 µM (inactive) in [7]; > 100 µM (inactive) in assay [8]; 92.7 µM (inactive) in assay [9]; > 100 µM (inactive) in assay [11]; > 100 µM (inactive) in assay [12]. Besides, the GI50 in [13] is > 100 µM (inactive); in assay [16], 61.8 µM (inactive); in assay [14] it was > 100 µM (inactive); in assay [17] it was > 100 µM (inactive).
For the compound `Cc1ccc(-c2[nH]c(=O)n(C3OC(CO)C(O)C(O)C3O)c(=O)c2C#N)cc1` (stereo not given), the GI50 was > 100 µM (inactive) in assay [1]; > 100 µM (inactive) in assay [2]; > 100 µM (inactive) in assay [15]; > 100 µM (inactive) in assay [4]; > 100 µM (inactive) in assay [5]; greater than 100 µM in [6]. Besides, the GI50 in [7], in assay [8], in assay [9], in assay [10], in assay [11] and in assay [12] was > 100 µM (inactive) in each case. Besides, the GI50 in assay [13], in [16], in assay [14], in assay [17] and in assay [18] was > 100 µM (inactive) each time.
With `CC#CCCCC1(C)CCCNC1=S` (stereo not given), the GI50 was > 10 µM (inactive) in assay [1]; > 10 µM (inactive) in [2]; > 10 µM (inactive) in assay [3]; > 10 µM (inactive) in assay [4]; > 10 µM (inactive) in assay [5]; greater than 10 µM in assay [6]. Moreover, the GI50 in [7], in [8], in assay [9], in [10], in [11] and in [12] was > 10 µM (inactive) each time. In addition, the GI50 in assay [16], in [14], in assay [17] and in [18] was > 10 µM (inactive) in each case.
Consider `O=C(C(Cl)Cl)N(O)c1ccccc1OCc1ccccc1`, for which the GI50 in [1] is 22 µM (inactive); in [2] it was 13.7 µM (inactive); in [15], 85.9 µM (inactive); in [3], 81.8 µM (inactive); in assay [4] it was 36.9 µM (inactive); in assay [5] it was 24.3 µM (inactive). For the same compound, the GI50 in assay [6] is 44.2 µM; in assay [7] it was 17.2 µM (inactive); in assay [8], 28.2 µM (inactive); in assay [9], 57.7 µM (inactive); in [10], 41.6 µM (inactive); in assay [11] it was 27.7 µM (inactive). Further, the GI50 in assay [12] was > 100 µM (inactive); in assay [13], 63.8 µM (inactive); in assay [16], 56.5 µM (inactive); in [14], 80 µM (inactive); in [17] it was > 100 µM (inactive).
